Values of other authors, collected in patent US20250152607A1, “COMPOSITIONS FOR VITAMIN D PRODUCTION” (DR WELLER LIMITED, priority 2022, published 2025).

Tests used:
[1] = powder

Compound: CC(C)[C@@H](C)/C=C/[C@@H](C)[C@H]1CC[C@H]2C3=CC=C4C[C@@H](O)CC[C@]4(C)[C@H]3CC[C@]12C [Ergosterol]
- skin irritancy [1]: skin irritant

Compound: CC1=C(/C=C\C2=CCC[C@]3(C)[C@@H]([C@H](C)CCCC(C)C)CC[C@@H]23)C[C@@H](O)CC1 [pre-vitamin D3]
- increase in rate of reaction for vitamin D3 formation from pre-vitamin D3 (by interaction with membrane phospholipids): more than 10 fold

Compound: pre-vitamin D
- time for isomerization of pre-vitamin D to vitamin D to reach equilibrium (in hexane at 37° C.): up to 10 days
